Assay results as given in the supplement of paper PMC11451515.

How the values were obtained:
Conditions in all cases: 48 h
SEM cells [1] = experiment: AUC of viability dose-response curve (% viability x log10 dose units); higher = less sensitive
Procedure, shortened: (§1)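 Viability of medium-adapted leukemia cells was measured by CellTiter-Glo One luminescence after 48 h at 37°C with library compounds in DMSO. Doses were 11 threefold steps from 47 μM to 0.79 nM, in 1536-well plates at 500 or 1000 cells/well. Signals were normalised per plate to DMSO and cell-free wells and fitted with a four-parameter log-logistic model on log10 dose. Area under the curve was integrated by trapezoidal rule, with curves exceeding full viability scaled and failed quality-control curves removed.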

P12-Ichikawa [2] = experiment: as above
Procedure, shortened: as §1

NOMO1 [3] = experiment: as above
Procedure, shortened: as §1

SEM cells [4] = experiment: cell viability relative to DMSO control; higher = less cytotoxic
Procedure, shortened: (§2)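 Viability is expressed as a percentage of DMSO wells within each plate, and cell-free wells serve as background. Seeding densities in the 1536-well plates (5 μl) were 500 cells/well for NOMO1 or SEM leukemia cells and 1000 cells/well for P12-Ichikawa. Each line was adapted for at least four passages in each medium. Library compounds in DMSO were pin-dosed at 47 μM to 0.79 nM (11 points, threefold), and CellTiter-Glo One luminescence was read after 48 h at 37°C.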

P12-Ichikawa [5] = experiment: as above
Procedure, shortened: as §2

NOMO1 [6] = experiment: as above
Procedure, shortened: as §2

O=C(Nc1c(Cl)cncc1Cl)c1ccc(OC(F)F)c(OCC2CC2)c1
AUC of viability dose-response curve
Conditions | NOMO1 [3] | P12-Ichikawa [2] | SEM cells [1]
HPLM + 10% dialyzed FBS | 459 | 475 | 453
RPMI 5 mM glucose + 10% FBS | 465 | 467 | 452
RPMI 5 mM glucose + 10% dialyzed FBS | 476 | 466 | 455

cell viability [%]
Conditions | NOMO1 [6] | P12-Ichikawa [5] | SEM cells [4]
HPLM + 10% dialyzed FBS, 0.000781 µM | 108 | 101 | 93.8
HPLM + 10% dialyzed FBS, 0.00234 µM | 126 | 112 | 90.5
HPLM + 10% dialyzed FBS, 0.00702 µM | 111 | 118 | 94.2
HPLM + 10% dialyzed FBS, 0.0211 µM | 97.5 | 105 | 96.8
HPLM + 10% dialyzed FBS, 0.0632 µM | 123 | 114 | 105
HPLM + 10% dialyzed FBS, 0.19 µM | 105 | 113 | 102
HPLM + 10% dialyzed FBS, 0.569 µM | 130 | 111 | 109
HPLM + 10% dialyzed FBS, 1.71 µM | 124 | 115 | 110
HPLM + 10% dialyzed FBS, 5.12 µM | 109 | 117 | 100
HPLM + 10% dialyzed FBS, 15.4 µM | 98.5 | 108 | 90.6
HPLM + 10% dialyzed FBS, 46.1 µM | 100 | 104 | 107
RPMI 5 mM glucose + 10% FBS, 0.000781 µM | 94.4 | 103 | 86.3
RPMI 5 mM glucose + 10% FBS, 0.00234 µM | 102 | 116 | 93.9
RPMI 5 mM glucose + 10% FBS, 0.00702 µM | 101 | 111 | 107
RPMI 5 mM glucose + 10% FBS, 0.0211 µM | 99.1 | 115 | 82
RPMI 5 mM glucose + 10% FBS, 0.0632 µM | 108 | 122 | 90.4
RPMI 5 mM glucose + 10% FBS, 0.19 µM | 106 | 121 | 97.4
RPMI 5 mM glucose + 10% FBS, 0.569 µM | 120 | 119 | 95.4
RPMI 5 mM glucose + 10% FBS, 1.71 µM | 107 | 106 | 93.6
RPMI 5 mM glucose + 10% FBS, 5.12 µM | 102 | 110 | 93.5
RPMI 5 mM glucose + 10% FBS, 15.4 µM | 103 | 106 | 101
RPMI 5 mM glucose + 10% FBS, 46.1 µM | 99.7 | 106 | 103
RPMI 5 mM glucose + 10% dialyzed FBS, 0.000781 µM | 94.5 | 96.8 | 92.4
RPMI 5 mM glucose + 10% dialyzed FBS, 0.00234 µM | 106 | 107 | 90.5
RPMI 5 mM glucose + 10% dialyzed FBS, 0.00702 µM | 112 | 100 | 102
RPMI 5 mM glucose + 10% dialyzed FBS, 0.0211 µM | 101 | 108 | 87.6
RPMI 5 mM glucose + 10% dialyzed FBS, 0.0632 µM | 107 | 106 | 96.6
RPMI 5 mM glucose + 10% dialyzed FBS, 0.19 µM | 112 | 108 | 94.3
RPMI 5 mM glucose + 10% dialyzed FBS, 0.569 µM | 106 | 114 | 102
RPMI 5 mM glucose + 10% dialyzed FBS, 1.71 µM | 114 | 111 | 111
RPMI 5 mM glucose + 10% dialyzed FBS, 5.12 µM | 97.8 | 113 | 101
RPMI 5 mM glucose + 10% dialyzed FBS, 15.4 µM | 99.6 | 109 | 85.8
RPMI 5 mM glucose + 10% dialyzed FBS, 46.1 µM | 102 | 105 | 85.7

CNC1CCC(N(Cc2cccc(-c3ccncc3)c2)C(=O)c2sc3c(F)ccc(F)c3c2Cl)CC1 (centres undefined)
AUC of viability dose-response curve
Conditions | NOMO1 [3] | P12-Ichikawa [2] | SEM cells [1]
HPLM + 10% dialyzed FBS | 453 | 467 | 455
RPMI 5 mM glucose + 10% FBS | 470 | 466 | 464
RPMI 5 mM glucose + 10% dialyzed FBS | 466 | 463 | 445

cell viability [%]
Conditions | NOMO1 [6] | P12-Ichikawa [5] | SEM cells [4]
HPLM + 10% dialyzed FBS, 0.000781 µM | 92.9 | 87.6 | 80.2
HPLM + 10% dialyzed FBS, 0.00234 µM | 111 | 101 | 102
HPLM + 10% dialyzed FBS, 0.00702 µM | 121 | 106 | 106
HPLM + 10% dialyzed FBS, 0.0211 µM | 123 | 105 | 117
HPLM + 10% dialyzed FBS, 0.0632 µM | 127 | 107 | 103
HPLM + 10% dialyzed FBS, 0.19 µM | 106 | 109 | 101
HPLM + 10% dialyzed FBS, 0.569 µM | 111 | 104 | 102
HPLM + 10% dialyzed FBS, 1.71 µM | 113 | 114 | 113
HPLM + 10% dialyzed FBS, 5.12 µM | 100 | 101 | 93.3
HPLM + 10% dialyzed FBS, 15.4 µM | 97.8 | 99.3 | 85.3
HPLM + 10% dialyzed FBS, 46.1 µM | 36.5 | 71.4 | 53.2
RPMI 5 mM glucose + 10% FBS, 0.000781 µM | 95.3 | 92.9 | 97.5
RPMI 5 mM glucose + 10% FBS, 0.00234 µM | 108 | 109 | 101
RPMI 5 mM glucose + 10% FBS, 0.00702 µM | 100 | 98.2 | 120
RPMI 5 mM glucose + 10% FBS, 0.0211 µM | 106 | 104 | 105
RPMI 5 mM glucose + 10% FBS, 0.0632 µM | 118 | 110 | 109
RPMI 5 mM glucose + 10% FBS, 0.19 µM | 105 | 105 | 95.9
RPMI 5 mM glucose + 10% FBS, 0.569 µM | 117 | 108 | 98
RPMI 5 mM glucose + 10% FBS, 1.71 µM | 105 | 100 | 110
RPMI 5 mM glucose + 10% FBS, 5.12 µM | 99 | 106 | 99.9
RPMI 5 mM glucose + 10% FBS, 15.4 µM | 104 | 94.9 | 92.3
RPMI 5 mM glucose + 10% FBS, 46.1 µM | 81 | 72.8 | 73.3
RPMI 5 mM glucose + 10% dialyzed FBS, 0.000781 µM | 87 | 92.8 | 93.7
RPMI 5 mM glucose + 10% dialyzed FBS, 0.00234 µM | 99.2 | 102 | 99.3
RPMI 5 mM glucose + 10% dialyzed FBS, 0.00702 µM | 104 | 105 | 113
RPMI 5 mM glucose + 10% dialyzed FBS, 0.0211 µM | 115 | 105 | 107
RPMI 5 mM glucose + 10% dialyzed FBS, 0.0632 µM | 112 | 97.5 | 104
RPMI 5 mM glucose + 10% dialyzed FBS, 0.19 µM | 99.7 | 105 | 74.7
RPMI 5 mM glucose + 10% dialyzed FBS, 0.569 µM | 110 | 106 | 101
RPMI 5 mM glucose + 10% dialyzed FBS, 1.71 µM | 100 | 94.3 | 91.9
RPMI 5 mM glucose + 10% dialyzed FBS, 5.12 µM | 100 | 103 | 90.3
RPMI 5 mM glucose + 10% dialyzed FBS, 15.4 µM | 108 | 93.6 | 85.9
RPMI 5 mM glucose + 10% dialyzed FBS, 46.1 µM | 57.4 | 55.3 | 69.2

Cc1cnc(NC(=O)Nc2cc(Br)c(C)cc2OC[C@@H]2CNCCO2)cn1
AUC of viability dose-response curve
Conditions | NOMO1 [3] | P12-Ichikawa [2] | SEM cells [1]
HPLM + 10% dialyzed FBS | 355 | 424 | 328
RPMI 5 mM glucose + 10% FBS | 409 | 435 | 350
RPMI 5 mM glucose + 10% dialyzed FBS | 365 | 393 | 326

cell viability [%]
Conditions | NOMO1 [6] | P12-Ichikawa [5] | SEM cells [4]
HPLM + 10% dialyzed FBS, 0.000781 µM | 122 | 119 | 95
HPLM + 10% dialyzed FBS, 0.00234 µM | 130 | 106 | 112
HPLM + 10% dialyzed FBS, 0.00702 µM | 107 | 112 | 110
HPLM + 10% dialyzed FBS, 0.0211 µM | 127 | 113 | 115
HPLM + 10% dialyzed FBS, 0.0632 µM | 130 | 120 | 117
HPLM + 10% dialyzed FBS, 0.19 µM | 120 | 106 | 107
HPLM + 10% dialyzed FBS, 0.569 µM | 95.1 | 104 | 65.8
HPLM + 10% dialyzed FBS, 1.71 µM | 69.5 | 100 | 31.8
HPLM + 10% dialyzed FBS, 5.12 µM | 30.9 | 76.7 | 22.6
HPLM + 10% dialyzed FBS, 15.4 µM | 35.5 | 93.8 | 24.4
HPLM + 10% dialyzed FBS, 46.1 µM | 26.6 | 48.4 | 22.5
RPMI 5 mM glucose + 10% FBS, 0.000781 µM | 108 | 108 | 103
RPMI 5 mM glucose + 10% FBS, 0.00234 µM | 120 | 109 | 114
RPMI 5 mM glucose + 10% FBS, 0.00702 µM | 107 | 105 | 78.6
RPMI 5 mM glucose + 10% FBS, 0.0211 µM | 107 | 111 | 105
RPMI 5 mM glucose + 10% FBS, 0.0632 µM | 119 | 118 | 109
RPMI 5 mM glucose + 10% FBS, 0.19 µM | 117 | 115 | 110
RPMI 5 mM glucose + 10% FBS, 0.569 µM | 101 | 111 | 91
RPMI 5 mM glucose + 10% FBS, 1.71 µM | 99 | 99.1 | 33
RPMI 5 mM glucose + 10% FBS, 5.12 µM | 51 | 67.9 | 27.5
RPMI 5 mM glucose + 10% FBS, 15.4 µM | 94.2 | 99.5 | 33.8
RPMI 5 mM glucose + 10% FBS, 46.1 µM | 22.5 | 34.3 | 17.5
RPMI 5 mM glucose + 10% dialyzed FBS, 0.000781 µM | 111 | 114 | 108
RPMI 5 mM glucose + 10% dialyzed FBS, 0.00234 µM | 106 | 120 | 101
RPMI 5 mM glucose + 10% dialyzed FBS, 0.00702 µM | 109 | 118 | 95.2
RPMI 5 mM glucose + 10% dialyzed FBS, 0.0211 µM | 116 | 121 | 106
RPMI 5 mM glucose + 10% dialyzed FBS, 0.0632 µM | 121 | 121 | 100
RPMI 5 mM glucose + 10% dialyzed FBS, 0.19 µM | 108 | 123 | 98.1
RPMI 5 mM glucose + 10% dialyzed FBS, 0.569 µM | 110 | 110 | 66.8
RPMI 5 mM glucose + 10% dialyzed FBS, 1.71 µM | 68.1 | 91 | 21.9
RPMI 5 mM glucose + 10% dialyzed FBS, 5.12 µM | 23.1 | 53.2 | 19.7
RPMI 5 mM glucose + 10% dialyzed FBS, 15.4 µM | 32.8 | 82.4 | 21.8
RPMI 5 mM glucose + 10% dialyzed FBS, 46.1 µM | 17.9 | 23.9 | 17.2
